This note sets out measurements from US11773188B2, “Chitosan-derived compositions” (Immunophotonics, Inc, priority 2012, dated 2023).

Where two headings read alike, the source gives them in different places.

Series [1] concerns breast cancer. The protocol: In one exemplary clinical study, two breast cancer patients received cyclophosphamide weekly (after inCVAX treatment) at a dose of between 150 and 200 mg/m^2. […] The patients continued to receive the low dose chemotherapy.
Series [2] relates to DMBA-4 transplantable, metastatic mammary tumor. Put plainly: Different components of laser-assisted immunotherapy in metastatic breast tumor-bearing rats. To be noted: 0.25% ICG injection only, 0.2 mL intratumoral; 12 rats; all rats dying. The format is in vivo, Wistar Furth rats.
Protocol: The laser-assisted immunotherapy system consisted of a near-infrared laser diode laser with a maximum output of 25 W; the laser-absorbing dye, indocyanine green; and the immunoadjuvant, glycated chitosan. When the primary tumor was 0.2 to 0.5 cm^3, treatment was initiated in the tumor-bearing rats. A solution of 0.2 mL of GC and/or ICG was injected into the center of the primary tumor in all groups. In rats receiving laser treatment, the injections occurred 2 h before irradiation, with animals anesthetized and the hair overlaying the tumor clipped. The laser settings were 2 W and 10 min, with the laser fiber tip maintained a distance of 4 mm from the overlying skin and the laser energy directed to the treatment sites through optical fibers. The animals were individually housed following treatment. In the survival studies, the breast or prostate tumor-bearing rats were observed daily and the three dimensions of each tumor were measured weekly. Female Wistar Furth rats (5 to 6 weeks of age, 100 to 125 g) were subcutaneously inoculated with the DMBA-4 transplantable, metastatic mammary tumor (10^5 viable tumor cells) into one inguinal fat pad of each rat. The primary tumor emerged 7 to 10 days after inoculation. […] The survival rate and primary and metastatic tumor profiles were determined for the individual components and various combinations of the components.
The test system of series [3] is Line 1 lung adenocarcinoma. To be noted: no GC, 8 mice.
Description: To evaluate photodynamic therapy as a the method for direct tumor destruction in combination with glycated chitosan, a combination of photofrin- and meso-substituted tetra (meta-hydroxy-phenyl) chlorin-(mTHPC) based photodynamic therapy and glycated chitosan injection was been studied in the EMT6 mammary sarcoma and Line 1 lung adenocarcinoma mouse models, respectively. In each model, BALB/c mice were subcutaneously inoculated with 10^6 viable tumor cells into the lower dorsal area. Tumors were treatment size (7 to 8 mm) after 7 days.
A 0.1 mg/kg dose of mTHPC was intravenously administered 24 h prior to irradiation. Animals were shielded from direct light immediately after the photosensitizer injection until 3 days after photodynamic treatment. Mice were restrained anaesthetized in holders exposing their backs during light treatment. A 652 nm light from a 0.25 W diode laser was delivered through an 8 mm diameter liquid light guide. The power density was set at 110 mW/cm^2, fora total light dose of 30 J/cm^2.
The test system of series [4] is EMT6 mammary sarcoma. Put plainly: Photofrin-based photodynamic therapy and glycated chitosan in EMT6 model. The format is in vivo, BALB/c mice. To be noted: 8 mice.
Protocol: In each model, BALB/c mice were subcutaneously inoculated with 10^6 viable tumor cells into the lower dorsal area. Tumors were treatment size (7 to 8 mm) after 7 days.
In the EMT6 mammary sarcoma model, treatment groups evaluated are detailed in the table below. Photofrin (Mont-Saint-Hilaire, Quebec, Canada) was prepared in 5% sterile dextrose to a 1 mg/mL concentration. A 5 mg/kg dose of photofrin was intravenously administered 24 h prior to irradiation. Animals were shielded from direct light immediately after the photosensitizer injection until 3 days after photodynamic treatment. Mice were restrained anaesthetized in holders exposing their backs during light treatment. Light (630 nm) was delivered through an 8 mm diameter liquid light guide. The power density was set at 100 mW/cm^2, for a total light dose of 60 J/cm^2. Immediately after light irradiation, if applicable, animals were administered a peritumoral dose of 0.5 or 1.5% glycated chitosan.
[5] abbreviates: weekly 150-200 mg/m^2 after inCVAX treatment, two breast cancer patients.

As to `CC(=O)O[C@H]1C(=O)[C@@]2(C)[C@H]([C@H](OC(=O)c3ccccc3)[C@]3(O)C[C@H](OC(=O)[C@H](O)[C@@H](NC(=O)c4ccccc4)c4ccccc4)C(C)=C1C3(C)C)[C@]1(OC(C)=O)CO[C@@H]1C[C@@H]2O` [Paclitaxel], the tumor response result in series [1] (weekly 75 mg/m^2 after response to cyclophosphamide slowed) is recorded as “the response was very good with shrinking tumors”.
As to `O=P1(N(CCCl)CCCl)NCCCO1` (centres unmarked) [cyclophosphamide], in series [1] (setting [5]), the adverse reactions result was “minimal adverse reactions” and the tumor response entry is reported as “responded well to the treatment with tumor shrinkage”.
With `CC1(C)C(/C=C/C=C/C=C/C=C2\N(CCCCS(=O)(=O)O)c3ccc4ccccc4c3C2(C)C)=[N+](CCCCS(=O)(=O)[O-])c2ccc3ccccc3c21` [indocyanine green], in series [2], the “survival after single component treatment” value is recorded as “average survival times similar to the control group”.
Regarding `Oc1cccc(-c2c3nc(c(-c4cccc(O)c4)c4ccc([nH]4)c(-c4cccc(O)c4)c4nc(c(-c5cccc(O)c5)c5ccc2[nH]5)CC4)C=C3)c1` [mTHPC, meso-substituted tetra (meta-hydroxy-phenyl) chlorin], the “Number of Long-Term Surviving Mice” value in series [3] (Laser (652 nm, 30 J/cm^2) + mTHPC 0.1 mg/kg i.v. 24 h before) is given as 0. Also, the “Long-term Survival Rate” value in series [3] (Laser + mTHPC 0.1 mg/kg i.v.) worked out at 0.0%.
Turning to Photofrin, the “Number of Long-Term Surviving Mice” value in series [4] (Non-Thermal Laser + Photofrin 5 mg/kg i.v. 24 h before 630 nm light 60 J/cm^2) stood at 3. Also, in series [4] (Non-Thermal Laser + Photofrin 5 mg/kg i.v., no GC), the “Long-term Survival Rate” value is 37.5%.
